Data: ChEMBL document CHEMBL5620386, “Synthesis, biological screening and in silico studies of new N-phenyl-4-(1,3-diaryl-1H-pyrazol-4-yl)thiazol-2-amine derivatives as potential antifungal and antitubercular agents” (Eur J Med Chem, 2023)
In brackets after ≈: the same amount, converted by molar mass. Several values for one entry are separate records, joined by “and”; a condition that tells them apart may be missing. Equal entries are not always repeated. Activity calls are given as the source filed them. The calls are words filed in the database; no cut-off is given here.

Assays:
[1] = test system: Mycobacterium tuberculosis; test: Antitubercular activity Mycobacterium tuberculosis H37Rv strain ATCC No- 27294 assessed as prevention of color change from blue to pink using Almar Blue measured after 24 hrs by MABA assay; type: functional
Staphylococcus aureus [2] = test: Antimicrobial activity against Staphylococcus aureus NCIM 2178 assessed as zone of inhibition by well diffusion method; type: functional
Staphylococcus aureus [3] = test: Antimicrobial activity against Staphylococcus aureus NCIM 2178 assessed as absence of growth by well diffusion method; type: functional
[4] = Cytotoxicity against mouse 3T3-L1 cells assessed as cell viability at 25 ug/ml measured after 24 hrs by MTT assay relative to control; type: toxicity, cell-based; conditions: at 25 µg/mL, read-out: Activity
Proteus mirabilis [5] = test: Antimicrobial activity against Proteus mirabilis NCIM 2388 assessed as zone of inhibition by well diffusion method; type: functional
Candida albicans = test: Antifungal activity against Candida albicans NCIM 3100 assessed as zone of inhibition by well diffusion method; type: functional
[6] = Cytotoxicity against mouse 3T3-L1 cells assessed as cell viability at 12.5 ug/ml measured after 24 hrs by MTT assay relative to control; type: toxicity, cell-based; conditions: at 12.5 µg/mL, read-out: Activity
Bacillus subtilis = test: Antimicrobial activity against Bacillus subtilis NCIM 2063 assessed as zone of inhibition by well diffusion method; type: functional
Aspergillus niger [7] = test: Antifungal activity against Aspergillus niger ATCC 504 assessed as absence of growth by well diffusion method; type: functional
Aspergillus niger [8] = test: Antifungal activity against Aspergillus niger ATCC 504 assessed as zone of inhibition by well diffusion method; type: functional
Proteus mirabilis [9] = test: Antimicrobial activity against Proteus mirabilis NCIM 2388 assessed as absence of growth by well diffusion method; type: functional
Escherichia coli = test: Antimicrobial activity against Escherichia coli NCIM 2574 assessed as zone of inhibition by well diffusion method; type: functional

SMILES	MIC [1]	inhibition zone (IZ) (Staphylococcus aureus [2]) [mm]	MIC (Staphylococcus aureus [3])	viability at 24 h, 25 ug/ml [4] [%]	inhibition zone (IZ) (Proteus mirabilis [5]) [mm]	inhibition zone (IZ) (Candida albicans) [mm]	viability at 24 h, 12.5 ug/ml [6] [%]	inhibition zone (IZ) (Bacillus subtilis) [mm]	MIC (Aspergillus niger [7])	inhibition zone (IZ) (Aspergillus niger [8]) [mm]	MIC (Proteus mirabilis [9]) [µg/mL]	inhibition zone (IZ) (Escherichia coli)
CO[C@H]1/C=C/O[C@@]2(C)Oc3c(C)c(O)c4c(O)c(c(/C=N/N5CCN(C)CC5)c(O)c4c3C2=O)NC(=O)/C(C)=C\C=C\[C@H](C)[C@H](O)[C@@H](C)[C@@H](O)[C@@H](C)[C@H](OC(C)=O)[C@@H]1C [RIFAMPIN]	0.8 µg/mL and 0.972 µM	–	–	–	–	–	–	–	–	–	–	–
Cc1ccc(Nc2nc(-c3cn(-c4ccc(F)cc4)nc3-c3ccc(Cl)cc3)cs2)cc1	1.6 µg/mL and 3.47 µM	17	62.5 µg/mL and 136 µM	91.3	15	10.8	72	12.2	15.6 µg/mL and 34 µM	20.2	125 (≈ 271 µM)	inactive
CC[C@@H](CO)NCCN[C@@H](CC)CO [ETHAMBUTOL]	1.6 µg/mL and 7.83 µM	–	–	–	–	–	–	–	–	–	–	–
COc1ccc(Nc2nc(-c3cn(-c4ccc(F)cc4)nc3-c3ccccc3)cs2)cc1	3.12 µg/mL and 7.07 µM	15	125 µg/mL (≈ 282 µM)	97.2	13.8	10.4	98.2	12.4	15.6 µg/mL and 35.3 µM	19.2	–	inactive
Fc1ccc(-n2cc(-c3csc(Nc4ccc(Cl)cc4)n3)c(-c3ccc(Cl)cc3)n2)cc1	1.6 µg/mL and 3.33 µM	15	125 µg/mL (≈ 260 µM)	56.7	13.6	10.4	74.4	12.6	15.6 µg/mL and 32.5 µM	19	–	11 mm
COc1ccc(Nc2nc(-c3cn(-c4ccc(F)cc4)nc3-c3ccc(Cl)cc3)cs2)cc1	1.6 µg/mL and 3.36 µM	15	125 µg/mL (≈ 262 µM)	63.1	13.2	11.4	72.9	12.2	15.6 µg/mL and 32.8 µM	18.8	–	inactive
Cc1ccc(Nc2nc(-c3cn(-c4ccccc4)nc3-c3ccc(Cl)cc3)cs2)cc1	1.6 µg/mL and 3.61 µM	15	125 µg/mL (≈ 282 µM)	72.9	14	10.2	83.8	12	15.6 µg/mL and 35.3 µM	18.2	125 (≈ 282 µM)	inactive
Cc1ccc(-c2nn(-c3ccccc3)cc2-c2csc(Nc3ccccc3)n2)cc1	12.5 µg/mL and 30.6 µM	15	125 µg/mL (≈ 306 µM)	57.3	15	9.6	64.6	11.4	15.6 µg/mL and 38.3 µM	20	125 (≈ 306 µM)	13 mm
COc1ccc(Nc2nc(-c3cn(-c4ccccc4)nc3-c3ccccc3)cs2)cc1	25 µg/mL and 58.9 µM	15	125 µg/mL (≈ 294 µM)	–	14.2	11.6	–	12.75	15.6 µg/mL and 36.8 µM	20	125 (≈ 294 µM)	inactive
Clc1ccc(Nc2nc(-c3cn(-c4ccccc4)nc3-c3ccc(Cl)cc3)cs2)cc1	1.6 µg/mL and 3.46 µM	14.2	125 µg/mL (≈ 270 µM)	99.2	14	10.4	118	11.6	31.2 µg/mL and 67.5 µM	17.4	125 (≈ 270 µM)	inactive
NC(=O)c1cnccn1 [PYRAZINAMIDE]	3.12 µg/mL and 25.4 µM	–	–	–	–	–	–	–	–	–	–	–
